Values joined by “and” are separate entries in the source; they are usually repeats but may differ in a detail not shown here. Equal values may be shown once. Read-outs that look alike come from different tables or passages of the source.
Columns and labels:
[1] = system: human osteosarcoma cell line SJSA-1; assay: Inhibition of proliferation of human osteosarcoma cell line SJSA-1 (DAPI staining, In Cell Analyzer); conditions: Homo sapiens, SJSA-1, 72 h, read-out: IC50 (nM), inhibitory activity on proliferation of human osteosarcoma cell line SJSA-1, SJSA-1, incubated 72 h
[2] = Pharmacokinetics in ICR mice after intravenous and intragastric administration; type: in vivo; conditions: for MRT inf: read-out: MRT(0-∞); for Vd: read-out: Vz; for MRT last: read-out: MRT(0-t)
Protocol: Experimental Example 3 Determination of the Pharmacokinetics of the Mdm2 Inhibitors of the Present Invention in Mice
ICR mice were used as the test animals, and the concentrations of the drugs in plasma of mice at different time points after intravenous administration and intragastric administration of the representative compounds were measured by a LC/MS/MS method, so as to study the pharmacokinetic behavior of the compounds of the present invention in mice and evaluate the pharmacokinetic characteristics thereof.
Some compounds prepared in Examples 1-180 of the present invention.
The control drug HDM201 was prepared by the method disclosed in patent No. CN104203952A.
Healthy adult ICR mice, male, 6-9 weeks old, weighing 20-30 g, purchased from Shanghai Xipuer-Bikai Laboratory Animal Co., Ltd., Animal Production License No.: SCXK (HU) 2013-0016
3.2.3 Preparation of Test Drugs
Intragastric or intravenous administration: an appropriate amount of sample was weighed, dissolved in 5% DMSO+40% PEG400+55% (10% HP-β-CD in Saline) to prepare a 0.5 mg/ml solution for intragastric or intravenous administration.
3.2.4 Administration of Test Drugs
Intravenous administration: for each test compound, 3 male ICR mice were administered intravenously at a dose of 2 mg/kg and an administration volume of […] after fasting overnight.
Intragastric administration: for each test compound, 3 male ICR mice were administered intragastrically at a dose of 5 mg/kg and an administration volume of […] after fasting overnight.
3.3 Experimental Operation
The collected plasma was stored at −80° C. before analysis. The plasma sample was analyzed by LC-MS/MS, and the sample was pretreated by protein precipitation method. The linear range of sample analysis was 1 to 2000 ng/ml. The lowest quantification limit was 1 ng/mL. WinNonlin (Pharsight, USA) was used to calculate the following pharmacokinetic parameters: area under the curve AUC(0-t), area under the curve AUC(0-∞), half-life t1/2, retention time MRT(0-∞), blood drug concentration Cmax, time taken to reach the peak blood drug concentration Tmax, bioavailability F, apparent volume of distribution Vz, and clearance rate CL.

MDM2 = biological target: T1, MDM2 (Homo sapiens, UniProt Q00987); assay: Inhibition test of MDM2-P53 (GST-MDM2, Biotin-P53, Anti-GST-Tb, SA-XL665); type: binding
T1 construct: made in house
Method in brief: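 Binding was measured by TR-FRET with GST-MDM2 at 4 nM final in PBS with 0.1% BSA, 5 mM DTT and 1 mM AEBSF. Compounds were tested as twelve-point 5-fold dilutions and incubated with the detection mix for 90 min at 25 °C with shaking before plate-reader reading and curve fitting.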

[3] = ICR mice, IV 2 mg/kg, individual animal, 2 mg/kg
[4] = ICR mice, PO 5 mg/kg, individual animal, 5 mg/kg
[5] = male, ICR, mouse, plasma, iv, 2 mg/kg, ICR mice, IV 2 mg/kg, individual animal
[6] = male, ICR, mouse, plasma, iv, 2 mg/kg, ICR mice, IV 2 mg/kg, mean of 3 animals
[7] = male, ICR, mouse, plasma, po, 5 mg/kg, ICR mice, PO 5 mg/kg, individual animal
[8] = male, ICR, mouse, plasma, po, 5 mg/kg, ICR mice, PO 5 mg/kg, mean of 3 animals

T1 sequence (Q00987 whole entry): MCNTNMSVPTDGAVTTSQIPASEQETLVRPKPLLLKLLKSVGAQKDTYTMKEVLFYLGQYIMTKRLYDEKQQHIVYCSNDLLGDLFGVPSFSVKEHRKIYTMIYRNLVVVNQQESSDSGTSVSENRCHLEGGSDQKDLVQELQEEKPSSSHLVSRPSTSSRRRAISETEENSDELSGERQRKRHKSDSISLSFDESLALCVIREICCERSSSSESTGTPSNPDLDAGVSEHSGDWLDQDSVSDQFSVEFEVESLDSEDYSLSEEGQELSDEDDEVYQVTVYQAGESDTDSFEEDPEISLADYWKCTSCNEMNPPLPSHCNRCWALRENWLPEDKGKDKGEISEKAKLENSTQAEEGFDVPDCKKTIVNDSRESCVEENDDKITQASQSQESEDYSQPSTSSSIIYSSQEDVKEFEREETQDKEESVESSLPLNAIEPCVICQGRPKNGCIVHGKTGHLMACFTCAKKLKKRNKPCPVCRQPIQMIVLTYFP

Q: What does the source list for `COc1cc(C2CC2)ncc1-c1nc2c(n1C(C)C)[C@@]1(C(=O)Nc3cc(Cl)ccc31)N(c1cc(Cl)ccc1C)C2=O` [Example S-103, (S)-6-chloro-5′-(5-chloro-2-methylphenyl)-2′-(6-cyclopropyl-4-methoxypyridin-3-yl)-3′-isopropyl-3′H-spiro[dihydroindole-3,4′-pyrrolo[3,4-d]imidazole]-2,6′(5′H)-dione]?
A: IC50 [1]: 40.5 nM; AUC(0-t) [2, 3]: 10460.62 ng·h/mL and 4009.87 ng·h/mL and 5508.40 ng·h/mL; AUC(0-∞) [2, 3]: 10483.52 ng·h/mL and 5119.53 ng·h/mL and 8771.81 ng·h/mL; CL [2, 3]: 3.18 mL/min/kg and 6.51 mL/min/kg and 3.80 mL/min/kg; Cmax [2, 3]: 1045.99 ng/mL and 1333.49 ng/mL; MRT(0-t) [2, 3]: 4.16 h and 2.05 h and 2.33 h; MRT(0-∞) [2, 3]: 3.75 h and 5.91 h; Vz [2, 3]: 1.53 L/kg and 1.35 L/kg; t1/2 [2, 3]: 2.71 h and 4.11 h; AUC(0-t) [2, 4]: 13078.28 ng·h/mL and 19872.62 ng·h/mL; AUC(0-∞) [2, 4]: 14231.55 ng·h/mL and 19888.79 ng·h/mL; Cmax [2, 4]: 2344.01 ng/mL and 3008.06 ng/mL; MRT(0-t) [2, 4]: 3.36 h and 4.45 h; MRT(0-∞) [2, 4]: 3.93 h and 4.47 h; Tmax [2, 4]: 4.00 h; t1/2 [2, 4]: 1.72 h and 2.23 h; Cmax ([2]; male, ICR, mouse, plasma, iv, 2 mg/kg, ICR mice, IV 2 mg/kg, individual animal, read-out: Cmax): 1330 ng/mL; MRT inf [2, 5]: 4.21 h; Tmax ([2]; male, ICR, mouse, plasma, iv, 2 mg/kg, ICR mice, IV 2 mg/kg, individual animal, read-out: Tmax): 1 h; Vd [2, 5]: 0.79 L/kg; half-life ([2]; male, ICR, mouse, plasma, iv, 2 mg/kg, ICR mice, IV 2 mg/kg, individual animal, read-out: t1/2 (converted)): 2.89 h; AUC(0-inf) [2, 6]: 8120 ng·h/mL; clearance [2, 6]: 4.5 mL/min/kg; AUC(0-t) ([2]; male, ICR, mouse, plasma, iv, 2 mg/kg, ICR mice, IV 2 mg/kg, mean of 3 animals, read-out: AUC(0-t)): 6660 ng·h/mL; Cmax ([2]; male, ICR, mouse, plasma, iv, 2 mg/kg, ICR mice, IV 2 mg/kg, mean of 3 animals, read-out: Cmax): 1240 ng/mL; MRT last [2, 6]: 2.85 h; MRT inf [2, 6]: 4.62 h; Tmax ([2]; male, ICR, mouse, plasma, iv, 2 mg/kg, ICR mice, IV 2 mg/kg, mean of 3 animals, read-out: Tmax): 1 h; Vd [2, 6]: 1.22 L/kg; half-life ([2]; male, ICR, mouse, plasma, iv, 2 mg/kg, ICR mice, IV 2 mg/kg, mean of 3 animals, read-out: t1/2 (converted)): 3.24 h; AUC(0-inf) [2, 7]: 11700 ng·h/mL; AUC(0-t) ([2]; male, ICR, mouse, plasma, po, 5 mg/kg, ICR mice, PO 5 mg/kg, individual animal, read-out: AUC(0-t)): 11000 ng·h/mL; Cmax ([2]; male, ICR, mouse, plasma, po, 5 mg/kg, ICR mice, PO 5 mg/kg, individual animal, read-out: Cmax): 2380 ng/mL; MRT last [2, 7]: 3.08 h; MRT inf [2, 7]: 3.54 h; Tmax ([2]; male, ICR, mouse, plasma, po, 5 mg/kg, ICR mice, PO 5 mg/kg, individual animal, read-out: Tmax): 2 h; half-life ([2]; male, ICR, mouse, plasma, po, 5 mg/kg, ICR mice, PO 5 mg/kg, individual animal, read-out: t1/2 (converted)): 1.84 h; AUC(0-inf) [2, 8]: 15300 ng·h/mL; AUC(0-t) ([2]; male, ICR, mouse, plasma, po, 5 mg/kg, ICR mice, PO 5 mg/kg, mean of 3 animals, read-out: AUC(0-t)): 14600 ng·h/mL; Cmax ([2]; male, ICR, mouse, plasma, po, 5 mg/kg, ICR mice, PO 5 mg/kg, mean of 3 animals, read-out: Cmax): 2580 ng/mL; MRT last [2, 8]: 3.63 h; MRT inf [2, 8]: 3.98 h; Tmax ([2]; male, ICR, mouse, plasma, po, 5 mg/kg, ICR mice, PO 5 mg/kg, mean of 3 animals, read-out: Tmax): 3.33 h; half-life ([2]; male, ICR, mouse, plasma, po, 5 mg/kg, ICR mice, PO 5 mg/kg, mean of 3 animals, read-out: t1/2 (converted)): 1.93 h; AUC(0-t) ([2]; male, ICR, mouse, plasma, po, 5 mg/kg, oral intragastric administration 5 mg/kg, read-out: AUC0-t): 14600 ng·h/mL; half-life ([2]; male, ICR, mouse, plasma, po, 5 mg/kg, oral intragastric administration 5 mg/kg, read-out: half-life (converted)): 1.93 h; bioavailability ([2]; male, mouse, plasma, ICR mice, PO 5 mg/kg vs IV 2 mg/kg, from mean values, read-out: F* (bioavailability)): 87.9%; IC50 (MDM2): 1.81 nM

— patent publication US11339171B2, “MDM2 inhibitors” (Gan & Lee Pharmaceuticals, priority 2017, dated 2022)
